Assay results published in patent publication US12295938B2, “Composition for treating castration-resistant prostate cancer, comprising quassinoids” (SAMSUNG LIFE PUBLIC WELFARE FOUNDATION, priority 2019, dated 2025).
Read-outs that look alike come from different tables or passages of the source.

Legend:
[1] = mouse, in vivo
Procedure: Anatomical and histological toxicity assays were performed on livers, kidneys and spleens from the mice subcutaneously injected with bruceantin. In order to analyze in vivo toxicity of bruceantin, liver, kidney, and spleen tissues from 22RV1 xenograft mouse models were analyzed after subcutaneous injection at a dose of 1 mg/kg/every 3 days, and the results are depicted in FIGS. 11a and 11b.
Anatomical and histological toxicity assays were performed on livers, kidneys and spleens from the mice to which bruceantin had been orally administered. In order to analyze in vivo toxicity of bruceantin, liver, kidney, and spleen tissues from 22RV1 xenograft mouse models were analyzed after oral administration at a dose of 2 mg/kg/every 2 days, and the results are depicted in FIGS. 12a and 12d.

[2] = system: 22RV1-xenografted mouse models; format: in vivo; set-up: Tumor (ave): unit not given here; settings: for Tumor (ave): 1 mg/kg every 3 days subcutaneous
Procedure: (§1) While being subcutaneously injected with bruceantin at a dose of 1 mg/kg/every 3 days, 22RV1-xenografted mouse models were monitored for inhibitory effects on tumor growth and body weights.

[3] = system: 22RV1 xenograft mouse models; format: in vivo; set-up: Tumor (ave): unit not given here; settings: 2 mg/kg every 2 days oral
Procedure: In mouse models xenografted with the castration-resistant prostate cancer (CRPC) cell line 22RV1, bruceantin was analyzed for inhibitory effect on tumor growth. To this end, bruceantin was orally administered at a dose of 2 mg/kg/every 2 days to 22RV1 xenograft mouse models during which inhibition effects on tumor growth and body weights were monitored. The results are depicted in FIGS. 9a and 9b and Tables 11 and 12.

[4] = mouse, in vivo; for AST/ALT (ave): sc
Procedure: FIG. 8b is a graph showing changes in blood AST/ALT ratio with doses of bruceantin subcutaneously injected to mice according to an embodiment of the present disclosure.
as §1

[5] = system: AR-V7 transcriptional activity; assay: MMTV-LUC luciferase reporter assay in 22RV1 cells, DHT− (screening and IC50); format: cell-based
Procedure: (§2) A library of antimalarial agents was screened using a luciferase reporter assay to measure changes in AR/AR-V7 transcriptional activity.
(§3) Screening was made primarily with 10 μM of each drug.

[6] = system: 22RV1 metastasis mouse models; format: in vivo; settings: 2 mg/kg every 2 days oral
Procedure: In order construct metastasis mouse models with the castration-resistant prostate cancer cell line 22RV1, the cells were subcutaneously injected into nude mice and the tumors was grown. Then, the tumors were harvested and injected into the left cardiac ventricle of nude mice to construct metastasis mouse models (see FIG. 13).
In the metastasis mouse models using the castration-resistant prostate cancer cell line 22RV1, bruceantin was analyzed for inhibitory effect on tumor metastasis and growth. In brief, the metastasis mice were monitored for inhibitory effects on tumor metastasis and growth and body weight while bruceantin was orally administered at a dose of 2 mg/kg/every 2 days thereto. The results are depicted in FIGS. 14a and 14b and Table 14.

[7] = system: hormone-dependent AR transcriptional activity; assay: MMTV-LUC reporter assay in LNCaP cells, hormone-dependent AR transcriptional activity; format: cell-based; settings: Homo sapiens, LNCaP, read-out: IC50 (nM) DHT+
[8] = system: RWPE-1, DU145, PC3, LNCaP, C4-2B, C4-2B-MDVR and 22RV1 cells; assay: MTT cell growth assay on normal prostate and prostate cancer cell lines; format: cell-based; settings: 1 nM to 5 nM, 72 hours; versus normal prostate cells and AR-negative prostate cancer cells
Procedure: Bruceantin was analyzed for inhibitory activity against cell growth of normal prostate cells (RWPE-1), AR-negative prostate cancer cells (DU145, PC3), AR-positive hormone-dependent prostate cancer cells (LNCaP, C4-2B), AR- & AR-V7-positive castration-resistant prostate cancer cells (C4-2B-MDVR and 22RV1) by an MTT assay method.
In brief, the cell lines were each seeded at a density of 1×10^4 cells/well into 96-well plates and incubated with each of the drugs at three concentrations ranging from 1 nM to 5 nM for 72 hours. Afterwards, an MTT dye solution and a solubilization solution/stop mix were added according to an MTT assay method, followed by reading absorbance at 570 nm to analyze cell viability. The data are depicted in FIG. 6.

[9] = system: 22RV1 cells; assay: MTT cell growth inhibition assay, 22RV1; format: cell-based; settings: 22RV1 cells
Procedure: In brief, 22RV1 cells were seeded at a density of 1×10^4 cells/well into 96-well plates and treated with each drug at 6 concentrations ranging from 5 nM to 200 nM for 72 hours. Afterwards, an MTT dye solution and a solubilization solution/stop mix were added according to an MTT assay method, followed by reading absorbance at 570 nm to analyze cell viability and IC50.

[10] = system: AR transcriptional activity; assay: MMTV-LUC luciferase reporter assay in 22RV1 cells, DHT+ (screening and IC50); format: cell-based; settings: Homo sapiens
Procedure: as §2, §3

[11] = Hematobiochemical toxicity assay in 22RV1 xenograft mice; format: in vivo, mouse; settings: for ALT (ave) / AST (ave) / AST/ALT (ave) / CK (ave) / Cr (ave) / LDH (ave): mouse, in vivo
Procedure: Briefly, in order to analyze toxicity of bruceantin in vivo, bloods from 22RV1 xenograft […] 3 days […] and oral administration at a dose of 2 mg/kg/every 2 days (p.o.), and the results are depicted in FIG. 10 and summarized in Table 13. • ALT: Alanine transaminase • AST: Aspartate transaminase • LDH: Lactate dehydrogenase • CR: Creatinine • CPK: Creatine phosphokinase

COC(=O)[C@@]12OC[C@]34[C@H]([C@@H](O)[C@@H]1O)[C@@]1(C)CC(=O)C(O)=C(C)[C@@H]1C[C@H]3OC(=O)[C@H](OC(=O)/C=C(\C)C(C)C)[C@@H]24 [Bruceantin, bruceantin]
morphological and histological changes in liver, kidney, spleen ([1]; po, 2 mg/kg): no morphological and histological changes (toxicity)
morphological and histological changes in liver, kidney, spleen ([1]; sc, 1 mg/kg): no morphological and histological changes (toxicity)
Tumor (ave) ([2]; Day 0): 57.5
Tumor (ave) ([2]; Day 3): 81.7
Tumor (ave) ([2]; Day 6): 161.6
Tumor (ave) ([2]; Day 9): 250.2
Tumor (ave) ([2]; Day 12): 428.0
Tumor (ave) ([2]; Day 15): 676.3
Tumor (ave) ([2]; Day 18): 895.7
Tumor (ave) ([2]; Day 21): 938.5
Tumor (ave) ([2]; Day 24): 1005.7
inhibition of in vivo tumor growth of CRPC cells ([2]; nude mice, 22RV1 cells, dose of 1 mg/kg): effectively inhibit in vivo tumor growth
inhibition of tumor growth [3]: effectively inhibit tumor growth
Tumor (ave) ([3]; Day 0): 73.0453
Tumor (ave) ([3]; Day 3): 89.5358
Tumor (ave) ([3]; Day 5): 75.35
Tumor (ave) ([3]; Day 7): 88.811
Tumor (ave) ([3]; Day 9): 157.6571
Tumor (ave) ([3]; Day 11): 189.9515
Tumor (ave) ([3]; Day 13): 256.5573
Tumor (ave) ([3]; Day 15): 348.6721
Tumor (ave) ([3]; Day 17): 485.1394
Tumor (ave) ([3]; Day 19): 567.0807
Tumor (ave) ([3]; Day 21): 616.549
effect on weights of the mice ([4]; 1 mg/kg): no effect on weights of the mice
hepatotoxicity ([4]; 1 mg/kg): nor to cause hepatotoxicity
AST/ALT (ave) ([4]; 0.5 mg/kg): 2.5
AST/ALT (ave) ([4]; 1 mg/kg): 3.3
activity at 0.1 µM ([5]; Homo sapiens, 22RV1 cells, 0.1 uM, no DHT, control = 100): 13.4 ± 2.5%
activity at 1 µM ([5]; Homo sapiens, 22RV1 cells, 1 uM, no DHT, control = 100): 15.2 ± 1.6%
activity at 10 µM ([5]; Homo sapiens, 22RV1 cells, 10 uM, no DHT, control = 100): 16.4 ± 2.3%
IC50 ([5]; Homo sapiens, 22RV1 cells, AR-V7 transcriptional activity): 3.14 nM
potency as inhibitor of AR/AR-V7 transcriptional activity compared with ailanthone ([5]; in both CRPC 22RV1 cells and androgen-dependent LNCaP cells): more potent inhibitors against AR/AR-V7 transcriptional activity
inhibitory effect on tumor metastasis and growth [6]: inhibit metastatic tumor growth and the number of metastases
IC50 [7]: 2.05 nM
specificity of cell growth inhibition [8]: inhibitory activity specifically against AR- and AR-V7-positive prostate cancer cells
fold more potent inhibitory activity against CRPC cell growth than ailanthone ([9]; versus ailanthone): 16 fold
IC50 ([9]; Homo sapiens, MTT, 72 hours, read-out: IC50 (22RV1 cell growth)): 2.07 nM
activity at 0.1 µM ([10]; 0.1 uM, with DHT, control = 100): 4 ± 0.5%
activity at 1 µM ([10]; 1 uM, with DHT, control = 100): 4.4 ± 0.3%
activity at 10 µM ([10]; 10 uM, with DHT, control = 100): 3.9 ± 0.4%
IC50 ([10]; AR transcriptional activity): 2.08 nM
toxicity on blood indices ([11]; compared to the control vehicle, both routes): no toxicity on blood indices
ALT (ave) ([11]; ip, 1 mg/kg): 61.2
AST (ave) ([11]; ip, 1 mg/kg): 351
AST/ALT (ave) ([11]; ip, 1 mg/kg): 6.409
CK (ave) ([11]; ip, 1 mg/kg): 180
Cr (ave) ([11]; ip, 1 mg/kg): 0.156
LDH (ave) ([11]; ip, 1 mg/kg): 1098.6
ALT (ave) ([11]; po, 2 mg/kg): 72
AST (ave) ([11]; po, 2 mg/kg): 263.4
AST/ALT (ave) ([11]; po, 2 mg/kg): 3.658
CK (ave) ([11]; po, 2 mg/kg): 247.5
Cr (ave) ([11]; po, 2 mg/kg): 0.138
LDH (ave) ([11]; po, 2 mg/kg): 1456.8
